# Results as given in PubChem BioAssay AID2060912 (Molecular Pharmacology Branch, DTP, NCI, 2025).
# Tested on: HUVEC/MSC spheroids viability
# Assay: Human HUVEC/MSC cell line growth inhibition [KRAS2];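 for viability, T/C: percent of DMSO vehicle control luminescence so 100% = untreated viability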
# Conditions: for IC50: curve of first compound; for viability, T/C: stronger effect = lower value
# From the text: Multicellular complex tumor spheroid response to RAS pathway inhibitors in combination with a targeted agents in patient-derived cell lines with oncogenic KRAS variants from multiple cancer types
# A high-throughput screen of multi-cell type tumor spheroids was designed to identify active combinations of targeted small molecules and KRAS pathway inhibitors. Complex spheroids include a stromal component modeled by human endothelial cells (HUVEC) and fibroblasts modeled by human mesenchymal stem cells (MSCs). The concentration ranges selected for each drug and investigational agent were based upon clinically achievable concentrations if the clinical Cmax of the agent was known. * [This particular assayID is a followup dataset requested by reviewers of the manuscript. It is a test of the HUVEC and MSC without the tumor cells, and was conducted using different drug plates and a different plate layout.]
# Compounds. The drugs and investigational agents: BI-3406 (NSC825286), BAY-293 (NSC824723), batoprotafib (TNO155; NSC825523), sotorasib (AMG 510; NSC818433), MRTX1257 (NSC819558), elimusertib (BAY 1895344; NSC800525), molibresib (GSK525762; NSC774829), temuterkib (LY3214996; NSC803410), venetoclax (NSC766270), alisertib (NSC759677), olaparib (NSC753686), talazoparib (NSC767125), erdafitinib (NSC781556), ipatasertib (NSC767898), cabozantinib (NSC761068), nintedanib (NSC756659), abemaciclib (NSC768073), docetaxel (NSC628503), trametinib (NSC758246), and sapanisertib (NSC764658) were obtained from the National Cancer Institute (NCI) Developmental Therapeutics Program Chemical Repository. The FDA-approved anticancer drug set is available from the Developmental Therapeutics Program. […] The stock solutions were prepared in dimethyl sulfoxide (DMSO, Sigma-Aldrich, St. Louis, MO, cat. D2650) at 800-fold the tested concentration and stored at -70 degrees C prior to their use. All drugs and investigational agents were tested over a range starting from a high concentration at or near the clinical Cmax and decreasing in half-log increments. If the clinical Cmax for an agent had not been determined, the highest concentration tested was 10 microM.
# Cell Culture. All cells were maintained in an incubator at 37 degrees C and 5% CO2 with 95% humidity. The PDC lines were cultured according to standard operating procedures established by the NCI PDMR (https://pdmr.cancer.gov/sops/default.htm). Briefly, all PDCs were thawed and cultured in Matrigel-coated flasks prepared with a working solution of 1X Ham's F-12 nutrient mix, without supplementation (Invitrogen, Waltham, MA, cat. 11765054), 100 U/mL penicillin-streptomycin (Invitrogen, cat. 15140122), and 2.5% Matrigel (Corning Inc., Corning, NY, cat. 354248) for the first three passages. All PDCs were cultured in complete DMEM/F-12 media containing advanced DMEM/F-12 (Invitrogen, cat. 12634028), 4.9% defined fetal bovine serum, heat inactivated (HyClone Laboratories Inc., Logan, UT, cat. SH30070.03HI), 389 ng/mL hydrocortisone (Sigma-Aldrich, cat. H4001), 9.7 ng/mL human EGF recombinant protein (Invitrogen, cat. PHG0313), 23.4 microg/mL adenine (Sigma-Aldrich, cat. A2786), 97.3 U/mL penicillin-streptomycin (Invitrogen, cat. 15140122), 1.9 mM L-glutamine (Invitrogen, cat. 25030081), and 9.7 microM Y-27632 dihydrochloride (Tocris Bioscience, Bristol, United Kingdom, cat. 1254). The PDCs were cultured in complete DMEM/F12 media without 9.7 microM Y-27632 dihydrochloride for at least two passages prior to the screen. The established cell line HOP-62 was cultured in RPMI 1640 medium, HEPES (Invitrogen, cat. 22400105) with 10% defined fetal bovine serum (HyClone Laboratories Inc., cat. SH30070.03) and 2 mM L-glutamine (Invitrogen, cat. 25030081). The pooled donor HUVEC were cultured in endothelial cell growth medium 2 (PromoCell, Heidelberg, Germany, cat. C-22011) and the hMSC were cultured in mesenchymal stem cell growth medium 2 (PromoCell, cat. C-28009). […]
# [1] = second compound 0.0316 µM, first compound 0.0316 µM
# [2] = second compound 0.0316 µM, first compound 0.1 µM
# [3] = second compound 0.1 µM, first compound 0.0316 µM
# [4] = second compound 0.1 µM, first compound 0.1 µM
# [5] = second compound 0.316 µM, first compound 0.0316 µM
# [6] = second compound 0.316 µM, first compound 0.1 µM
# [7] = second compound 1 µM, first compound 0.0316 µM
# [8] = second compound 1 µM, first compound 0.1 µM
# [9] = second compound 3.16 µM, first compound 0.0316 µM
# [10] = second compound 3.16 µM, first compound 0.1 µM
# [11] = second compound 10 µM, first compound 0.0316 µM
# [12] = second compound 10 µM, first compound 0.1 µM
# [13] = second compound 0.0316 µM, first compound 0.316 µM
# [14] = second compound 0.0316 µM, first compound 1 µM
# [15] = second compound 0.0316 µM, first compound 3.16 µM
# [16] = second compound 0.0316 µM, first compound 10 µM
# [17] = second compound 0.1 µM, first compound 0.316 µM
# [18] = second compound 0.1 µM, first compound 1 µM
# [19] = second compound 0.1 µM, first compound 3.16 µM
# [20] = second compound 0.1 µM, first compound 10 µM
# [21] = second compound 0.316 µM, first compound 0.316 µM
# [22] = second compound 0.316 µM, first compound 1 µM
# [23] = second compound 0.316 µM, first compound 3.16 µM
# [24] = second compound 0.316 µM, first compound 10 µM
# [25] = second compound 1 µM, first compound 0.316 µM
# [26] = second compound 1 µM, first compound 1 µM
# [27] = second compound 1 µM, first compound 3.16 µM
# [28] = second compound 1 µM, first compound 10 µM
# [29] = second compound 3.16 µM, first compound 0.316 µM
# [30] = second compound 3.16 µM, first compound 1 µM
# [31] = second compound 3.16 µM, first compound 3.16 µM
# [32] = second compound 3.16 µM, first compound 10 µM
# [33] = second compound 10 µM, first compound 0.316 µM
# [34] = second compound 10 µM, first compound 1 µM
# [35] = second compound 10 µM, first compound 3.16 µM
# [36] = second compound 10 µM, first compound 10 µM
smiles,measurement,setting,value
CC(C)n1nc(-c2ccc3oc(N)nc3c2)c2c(N)ncnc21 + C=CC(=O)N1CCN(c2nc(=O)n(-c3c(C)ccnc3C(C)C)c3nc(-c4c(O)cccc4F)c(F)cc23)C(C)C1,IC50,second compound 0.0316 µM,0.00306 µM
same,IC50,second compound 0.1 µM,0.00963 µM
same,IC50,second compound 0.316 µM,0.1 µM
same,IC50,second compound 1 µM,> 0.1 µM
same,IC50,second compound 3.16 µM,> 0.1 µM
same,IC50,second compound 10 µM,> 0.1 µM
same,"viability, T/C","second compound 0.0316 µM, first compound 0.000316 µM",88.3%
same,"viability, T/C","second compound 0.0316 µM, first compound 0.001 µM",76.4%
same,"viability, T/C","second compound 0.0316 µM, first compound 0.00316 µM",48.8%
same,"viability, T/C","second compound 0.0316 µM, first compound 0.01 µM",49.7%
same,"viability, T/C",[1],43.2%
same,"viability, T/C",[2],44.1%
same,"viability, T/C","second compound 0.1 µM, first compound 0.000316 µM",88.7%
same,"viability, T/C","second compound 0.1 µM, first compound 0.001 µM",59.8%
same,"viability, T/C","second compound 0.1 µM, first compound 0.00316 µM",63.4%
same,"viability, T/C","second compound 0.1 µM, first compound 0.01 µM",48.5%
same,"viability, T/C",[3],50.4%
same,"viability, T/C",[4],36.2%
same,"viability, T/C","second compound 0.316 µM, first compound 0.000316 µM",79.4%
same,"viability, T/C","second compound 0.316 µM, first compound 0.001 µM",86.6%
same,"viability, T/C","second compound 0.316 µM, first compound 0.00316 µM",53.5%
same,"viability, T/C","second compound 0.316 µM, first compound 0.01 µM",52.5%
same,"viability, T/C",[5],64.4%
same,"viability, T/C",[6],50.6%
same,"viability, T/C","second compound 1 µM, first compound 0.000316 µM",94%
same,"viability, T/C","second compound 1 µM, first compound 0.001 µM",73.1%
same,"viability, T/C","second compound 1 µM, first compound 0.00316 µM",65%
same,"viability, T/C","second compound 1 µM, first compound 0.01 µM",51.9%
same,"viability, T/C",[7],65%
same,"viability, T/C",[8],53.5%
same,"viability, T/C","second compound 3.16 µM, first compound 0.000316 µM",86.2%
same,"viability, T/C","second compound 3.16 µM, first compound 0.001 µM",74.9%
same,"viability, T/C","second compound 3.16 µM, first compound 0.00316 µM",66.6%
same,"viability, T/C","second compound 3.16 µM, first compound 0.01 µM",60.6%
same,"viability, T/C",[9],62.3%
same,"viability, T/C",[10],56.4%
same,"viability, T/C","second compound 10 µM, first compound 0.000316 µM",75%
same,"viability, T/C","second compound 10 µM, first compound 0.001 µM",67.4%
same,"viability, T/C","second compound 10 µM, first compound 0.00316 µM",72.9%
same,"viability, T/C","second compound 10 µM, first compound 0.01 µM",76.3%
same,"viability, T/C",[11],60.4%
same,"viability, T/C",[12],54.9%
COc1cc(Nc2ncc3c(n2)-c2ccc(Cl)cc2C(c2c(F)cccc2OC)=NC3)ccc1C(=O)O + C=CC(=O)N1CCN(c2nc(=O)n(-c3c(C)ccnc3C(C)C)c3nc(-c4c(O)cccc4F)c(F)cc23)C(C)C1,IC50,second compound 0.0316 µM,> 10 µM
same,IC50,second compound 0.1 µM,> 10 µM
same,IC50,second compound 0.316 µM,> 10 µM
same,IC50,second compound 1 µM,> 10 µM
same,IC50,second compound 3.16 µM,> 10 µM
same,IC50,second compound 10 µM,> 10 µM
same,"viability, T/C",[1],94.8%
same,"viability, T/C",[2],125%
same,"viability, T/C",[13],99%
same,"viability, T/C",[14],109%
same,"viability, T/C",[15],106%
same,"viability, T/C",[16],71.6%
same,"viability, T/C",[3],103%
same,"viability, T/C",[4],109%
same,"viability, T/C",[17],108%
same,"viability, T/C",[18],111%
same,"viability, T/C",[19],106%
same,"viability, T/C",[20],56.3%
same,"viability, T/C",[5],111%
same,"viability, T/C",[6],114%
same,"viability, T/C",[21],93.8%
same,"viability, T/C",[22],116%
same,"viability, T/C",[23],106%
same,"viability, T/C",[24],69.3%
same,"viability, T/C",[7],122%
same,"viability, T/C",[8],127%
same,"viability, T/C",[25],115%
same,"viability, T/C",[26],127%
same,"viability, T/C",[27],117%
same,"viability, T/C",[28],72.9%
same,"viability, T/C",[9],110%
same,"viability, T/C",[10],123%
same,"viability, T/C",[29],110%
same,"viability, T/C",[30],96.3%
same,"viability, T/C",[31],109%
same,"viability, T/C",[32],83.3%
same,"viability, T/C",[11],136%
same,"viability, T/C",[12],129%
same,"viability, T/C",[33],154%
same,"viability, T/C",[34],120%
same,"viability, T/C",[35],101%
same,"viability, T/C",[36],66.8%
COc1cc2nccc(Oc3ccc(NC(=O)C4(C(=O)Nc5ccc(F)cc5)CC4)cc3)c2cc1OC + C=CC(=O)N1CCN(c2nc(=O)n(-c3c(C)ccnc3C(C)C)c3nc(-c4c(O)cccc4F)c(F)cc23)C(C)C1,IC50,second compound 0.0316 µM,> 10 µM
same,IC50,second compound 0.1 µM,6.21 µM
same,IC50,second compound 0.316 µM,7.63 µM
same,IC50,second compound 1 µM,9.55 µM
same,IC50,second compound 3.16 µM,> 10 µM
same,IC50,second compound 10 µM,8.55 µM
same,"viability, T/C",[1],66.7%
same,"viability, T/C",[2],102%
same,"viability, T/C",[13],63.2%
same,"viability, T/C",[14],72.4%
same,"viability, T/C",[15],77.2%
same,"viability, T/C",[16],51.5%
same,"viability, T/C",[3],61.5%
same,"viability, T/C",[4],71%
same,"viability, T/C",[17],89.2%
same,"viability, T/C",[18],92.6%
same,"viability, T/C",[19],91.7%
same,"viability, T/C",[20],27.8%
same,"viability, T/C",[5],79.2%
same,"viability, T/C",[6],108%
same,"viability, T/C",[21],96.6%
same,"viability, T/C",[22],80.6%
same,"viability, T/C",[23],83.3%
same,"viability, T/C",[24],40.2%
same,"viability, T/C",[7],87%
same,"viability, T/C",[8],89.5%
same,"viability, T/C",[25],111%
same,"viability, T/C",[26],92.4%
same,"viability, T/C",[27],92.6%
same,"viability, T/C",[28],48.2%
same,"viability, T/C",[9],103%
same,"viability, T/C",[10],124%
same,"viability, T/C",[29],129%
same,"viability, T/C",[30],88%
same,"viability, T/C",[31],84.2%
same,"viability, T/C",[32],56.9%
same,"viability, T/C",[11],112%
same,"viability, T/C",[12],102%
same,"viability, T/C",[33],109%
same,"viability, T/C",[34],97.9%
same,"viability, T/C",[35],123%
same,"viability, T/C",[36],40.7%
